Data on three compounds can be found in US5063152A, “Synthetic peptidic substrate for determination of trypsin and α1” (Nitto Boseki Co., Ltd., priority 1985, dated 1991).

Where “and” joins values, the source holds several entries; their conditions need not be identical. Equal values may be shown once. Square brackets hold non-standard residues; d marks the D form. Peptide text beside a SMILES is read from it. * marks the point of attachment. pNA = O=[N+]([O-])c1ccc(N*)cc1; Cbz = O=C(OCc1ccccc1)*

The target of one assay is T1, Factor Xa (FXa) (Bos taurus, UniProt P00743).
T1 construct: Factor Xa; purchased Sigma Chem. Co
T1 sequence (P00743 234-492 limits assumed): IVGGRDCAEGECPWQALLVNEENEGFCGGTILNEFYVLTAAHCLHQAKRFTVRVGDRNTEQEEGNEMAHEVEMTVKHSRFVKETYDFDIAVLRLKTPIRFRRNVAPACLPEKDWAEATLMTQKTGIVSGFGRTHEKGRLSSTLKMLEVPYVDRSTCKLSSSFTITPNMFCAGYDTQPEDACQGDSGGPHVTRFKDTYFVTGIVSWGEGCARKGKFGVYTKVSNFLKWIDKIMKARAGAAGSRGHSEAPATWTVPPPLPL
T1 sequence (P00743 41-180 partner limits assumed): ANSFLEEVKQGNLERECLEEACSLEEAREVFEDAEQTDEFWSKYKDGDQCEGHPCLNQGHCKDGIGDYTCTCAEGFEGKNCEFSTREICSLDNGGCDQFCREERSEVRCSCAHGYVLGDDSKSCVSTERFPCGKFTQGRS
Description: substrate specificity test, reaction with factor Xa. It is filed as biochemical, Bovine. Particulars: for measured optical density (absorbance), factor Xa: initial substrate concentration 2 mmol/l, 37° C., 5 minutes; for relative reactivity of substrate with factor Xa: reactivity of PS-1188N taken as 100, initial substrate concentration 2 mmol; for relative reactivity in the case of factor Xa: Table 1, PS-1188N = 100. As to the method: (§1) The synthetic peptides obtained in Examples 1 and 2 were subjected to a substrate specificity test by reacting with various enzymes under the following conditions.
(§2) 1) substrate solution: 10 mmol/l (concentration)
(§3) 2) buffer solution: tris-HCl buffer
(§4) Concentrations of NaCl, and CaCl2 and pH (at 25° C.) were adjusted as shown in Table 2 depending on enzymes to be reacted: […]
(§5) 4) Reaction stopper solution in the case of pNA: 10% acetic acid
(§6) 5) Color producing reagent for CHA: sodium pentacyanoamine ferroate
(§7) The buffer solution in an amount of 0.3 ml and 0.1 ml of an enzyme solution were placed in a test tube made of hard glass treated with silicon or a test tube made of a plastic (polystyrene) and preheated for 5 minutes in a constant temperature bath maintained at 37° C. Then, 0.1 ml of a substrate solution was added to the test tube and incubated at 37° C. for just 5 minutes. Subsequently, 2.0 ml of the reaction stopper solution (in the case of pNA) or the color producing reagent (in the case of CHA) was added to the reaction solution to terminate the enzymatic reaction. After allowing to stand at 37° C. for 10 minutes, absorbance (optical density) at 405 nm (in the case of pNA) or at 700 nm (in the case of coupled CHA) was measured. The initial substrate concentration was 2 mmol/l.

The target of another assay is T2, Plasmin (PL) (Homo sapiens, UniProt P00747).
T2 construct: Plasmin Human; purchased Green Cross Corp
T2 sequence (P00747 581-810 limits assumed): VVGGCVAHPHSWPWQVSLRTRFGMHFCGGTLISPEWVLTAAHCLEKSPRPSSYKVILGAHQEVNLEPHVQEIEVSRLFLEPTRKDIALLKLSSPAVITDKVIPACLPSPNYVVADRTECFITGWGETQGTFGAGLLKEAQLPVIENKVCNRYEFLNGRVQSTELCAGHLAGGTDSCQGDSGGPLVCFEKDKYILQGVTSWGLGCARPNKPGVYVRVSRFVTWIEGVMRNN
T2 sequence (P00747 97-580 partner limits assumed): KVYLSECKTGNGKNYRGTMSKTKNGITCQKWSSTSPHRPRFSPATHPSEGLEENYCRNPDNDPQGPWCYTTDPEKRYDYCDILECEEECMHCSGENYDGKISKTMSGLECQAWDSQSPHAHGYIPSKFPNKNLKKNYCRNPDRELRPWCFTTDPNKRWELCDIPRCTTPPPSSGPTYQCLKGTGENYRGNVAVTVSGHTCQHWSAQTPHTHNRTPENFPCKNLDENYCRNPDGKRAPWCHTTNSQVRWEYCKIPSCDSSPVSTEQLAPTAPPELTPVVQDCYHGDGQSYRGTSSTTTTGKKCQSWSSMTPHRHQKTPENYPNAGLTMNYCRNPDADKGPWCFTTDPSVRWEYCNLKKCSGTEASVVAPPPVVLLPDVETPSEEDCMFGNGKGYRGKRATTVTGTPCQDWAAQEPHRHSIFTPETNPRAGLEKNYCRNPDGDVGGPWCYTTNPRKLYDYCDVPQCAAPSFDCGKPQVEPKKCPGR
Description: substrate specificity test, reaction with plasmin. It is filed as biochemical. Conditions: for measured optical density (absorbance), plasmin: initial substrate concentration 2 mmol/l, 37° C., 5 minutes; for relative reactivity of substrate with plasmin: reactivity of PS-1188N taken as 100, initial substrate concentration 2 mmol; for relative reactivity in the case of plasmin: Table 1, PS-1188N = 100. As to the method: as §1, §2, §3, §4, §5, §6, §7

The next assay concerns the target T3, Trypsin (Try) (Bos taurus, UniProt P00760).
T3 construct: purchased Worthington
T3 sequence (P00760 24-246): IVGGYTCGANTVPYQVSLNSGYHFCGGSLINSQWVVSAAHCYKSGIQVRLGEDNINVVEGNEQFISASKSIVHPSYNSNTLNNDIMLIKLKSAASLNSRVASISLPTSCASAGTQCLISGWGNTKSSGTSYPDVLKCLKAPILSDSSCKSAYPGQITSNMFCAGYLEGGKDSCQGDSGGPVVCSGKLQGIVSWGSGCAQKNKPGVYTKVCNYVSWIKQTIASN
The assay can be described thus: substrate specificity test, reaction with trypsin. Conditions: for measured optical density (absorbance), trypsin: initial substrate concentration 2 mmol/l, 37° C., 5 minutes; for relative reactivity of substrate with trypsin: reactivity of PS-1188N taken as 100, initial substrate concentration 2 mmol. It is filed as biochemical, Bovine. The method, then: as §1, §2, §3, §4, §5, §6, §7

The target in another assay is T4, Kallikrein (KL) (Sus scrofa, UniProt P00752).
T4 construct: purchased Sigma Chem. Co
T4 sequence (P00752 8-246): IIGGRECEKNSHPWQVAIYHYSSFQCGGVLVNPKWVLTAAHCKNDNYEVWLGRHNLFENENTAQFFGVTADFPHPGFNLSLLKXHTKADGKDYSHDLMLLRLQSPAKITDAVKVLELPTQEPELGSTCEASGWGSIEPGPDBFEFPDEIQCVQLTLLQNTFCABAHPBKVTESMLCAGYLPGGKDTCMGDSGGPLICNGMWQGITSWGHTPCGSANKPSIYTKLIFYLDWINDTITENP
The assay can be described thus: substrate specificity test, reaction with kallikrein. Particulars: for measured optical density (absorbance), kallikrein: initial substrate concentration 2 mmol/l, 37° C., 5 minutes; for relative reactivity of substrate with kallikrein: reactivity of PS-1188N taken as 100, initial substrate concentration 2 mmol; for relative reactivity in the case of kallikrein: Table 1, PS-1188N = 100. It is filed as biochemical, Porcine. The method, then: as §1, §2, §3, §4, §5, §6, §7

The target of a further assay is T5, Urokinase (UK) (Homo sapiens, UniProt P00749).
T5 construct: purchased Mochida Pharmaceutical Co., Ltd
Description: substrate specificity test, reaction with urokinase. The format is biochemical. Conditions: initial substrate concentration 2 mmol/l, 37° C., 5 minutes. The method, then: as §1, §2, §3, §4, §5, §6, §7

A further assay addresses T6, Thrombin (TH) (Bos taurus, UniProt P00735).
T6 construct: Thrombin; purchased Mochida Pharmaceutical Co., Ltd
Description: substrate specificity test, reaction with thrombin. It is filed as biochemical, Bovine. Conditions: for measured optical density (absorbance), thrombin: initial substrate concentration 2 mmol/l, 37° C., 5 minutes; for relative reactivity of substrate with thrombin: reactivity of PS-1188N taken as 100, initial substrate concentration 2 mmol; for relative reactivity in the case of thrombin: Table 1, PS-1188N = 100. As to the method: as §1, §2, §3, §4, §5, §6, §7

As to `CC(C)C[C@H](NC(=O)[C@H]1CCCN1)C(=O)N[C@@H](CCCCN)C(=O)Nc1ccc([N+](=O)[O-])cc1` [PS-1188N, H-D -Pro-Leu-Lys-pNA] (H-[dP]-Leu-Lys-pNA), on Factor Xa (FXa) (405 nm (pNA)), the “measured optical density (absorbance), factor Xa” value was determined as 0.007. At Factor Xa (FXa), the “relative reactivity of substrate with factor Xa” value is given as 100. The “measured optical density (absorbance), plasmin” value at Plasmin (PL) (405 nm (pNA)) came to 0.134. Besides, the “relative reactivity of substrate with plasmin” value at Plasmin (PL) is on record as 100. Moreover, the “measured optical density (absorbance), trypsin” value on Trypsin (Try) (405 nm (pNA)) amounted to 0.160. On Trypsin (Try), the “relative reactivity of substrate with trypsin” value worked out at 100. On Kallikrein (KL) (405 nm (pNA)), the “measured optical density (absorbance), kallikrein” value was 0.032 and 0.039. Besides, the “relative reactivity of substrate with kallikrein” value on Kallikrein (KL) worked out at 100. Besides, the “measured optical density (absorbance), urokinase” value at Urokinase (UK) (405 nm (pNA)) is on record as 0.0. Moreover, the “measured optical density (absorbance), thrombin” value on Thrombin (TH) (405 nm (pNA)) is on record as 0.003. Also, at Thrombin (TH), the “relative reactivity of substrate with thrombin” value is 100.
Regarding `CC(C)[C@H](NC(=O)OCc1ccccc1)C(=O)NCC(=O)N[C@@H](CCCNC(=N)N)C(=O)Nc1ccc([N+](=O)[O-])cc1` [CHR-TRY, Z-Val-Gly-Arg-pNA] (Cbz-Val-Gly-Arg-pNA), the “measured optical density (absorbance), factor Xa” value at Factor Xa (FXa) (405 nm (pNA)) worked out at 0.148. Also, at Factor Xa (FXa), the “relative reactivity in the case of factor Xa” value is 2114% and the “relative reactivity of substrate with factor Xa” value was determined as 2114. Moreover, the “measured optical density (absorbance), plasmin” value at Plasmin (PL) (405 nm (pNA)) amounted to 0.057. Also, at Plasmin (PL), the “relative reactivity in the case of plasmin” value amounted to 43% and the “relative reactivity of substrate with plasmin” value is reported as 43. Further, the “measured optical density (absorbance), trypsin” value on Trypsin (Try) (405 nm (pNA)) is listed as 2.601. Also, the “relative reactivity of substrate with trypsin” value on Trypsin (Try) came out at 1626. In addition, at Kallikrein (KL) (405 nm (pNA)), the “measured optical density (absorbance), kallikrein” value is reported as 0.029. On Kallikrein (KL), the “relative reactivity in the case of kallikrein” value is 74% and the “relative reactivity of substrate with kallikrein” value is recorded as 74. Moreover, the “measured optical density (absorbance), urokinase” value at Urokinase (UK) (405 nm (pNA)) came out at 0.112. The “measured optical density (absorbance), thrombin” value on Thrombin (TH) (405 nm (pNA)) was found to be 0.066. For the same compound, on Thrombin (TH), the “relative reactivity in the case of thrombin” value is reported as 2200% and the “relative reactivity of substrate with thrombin” value is 2200.
Turning to `CC(C)C[C@H](NC(=O)[C@H]1CCCN1)C(=O)N[C@@H](CCCCN)C(=O)Nc1ccc(O)c(C(=O)O)c1` [PS-1188, H-D -Pro-Leu-Lys-CHA], at Factor Xa (FXa) (700 nm (coupled CHA)), the “measured optical density (absorbance), factor Xa” value was 0.006. On Factor Xa (FXa), the “relative reactivity in the case of factor Xa” value is listed as 37% and the “relative reactivity of substrate with factor Xa” value was 37. Besides, at Plasmin (PL) (700 nm (coupled CHA)), the “measured optical density (absorbance), plasmin” value turned out to be 0.008. Also, at Plasmin (PL), the “relative reactivity in the case of plasmin” value came out at 3% and the “relative reactivity of substrate with plasmin” value was determined as 3. Further, on Trypsin (Try) (700 nm (coupled CHA)), the “measured optical density (absorbance), trypsin” value was found to be 0.314. The “relative reactivity of substrate with trypsin” value on Trypsin (Try) was found to be 86. The “measured optical density (absorbance), kallikrein” value at Kallikrein (KL) (700 nm (coupled CHA)) turned out to be 0.002. At Kallikrein (KL), the “relative reactivity in the case of kallikrein” value stood at 2% and the “relative reactivity of substrate with kallikrein” value stood at 2. On Urokinase (UK) (700 nm (coupled CHA)), the “measured optical density (absorbance), urokinase” value was 0.001. The “measured optical density (absorbance), thrombin” value on Thrombin (TH) (700 nm (coupled CHA)) is listed as 0.0. Further, at Thrombin (TH), the “relative reactivity in the case of thrombin” value came to 0% and the “relative reactivity of substrate with thrombin” value worked out at 0.
